Data taken from US11850334B2, “Immobilised biological entities” (CARMEDA AB, priority 2018, dated 2023).

Test system: FXa
Assay: Anti-FXa activity of heparin fragments in solution, compared with International Standard (Evaluation Method C)
Type: biochemical
Conditions: not immobilized, calculated towards Low Molecular Heparin 2nd International Standard
Protocol: Evaluation Method C: Anti-FXa Activity Determination of Heparin Fragments in Solution, Compared with International Standard
The anticoagulant activity of the heparin fragments are determined in an anti-FXa assay. This method measures anti-FXa activity of heparin essentially according to USP<208> Anti-FXa and Anti-FIIa assays for unfractionated and low molecular weight heparins. The method is based on heparin's ability to accelerate antithrombin inhibition of FXa in vitro, where the residual FXa activity is detected using a chromogenic FXa substrate (CS 11(65)). The results expressed as IU/mg (international unit/mg) are calculated using the parallel-line model, towards the Low Molecular Heparin 2nd International Standard.
Anti-FXa activity was determined by Evaluation Method Con example 1.2 (alpha), 1.1 (beta), 2.1, 2.2 and 2.3 (see Table 3). All heparin fragments tested were in solution and not immobilized to a surface.

| Molecule | anti-FXa activity |
| --- | --- |
| 5-Aminopentyl 2-deoxy-2-sulfamido-6-O-sulfo-α-D-glucopyranosyl-(1→4)-β-D-glucopyranosyluronic acid-(1→4)-2-deoxy-2-sulfamido-3,6-di-O-sulfo-α-D-glucopyranosyl-(1→4)-2-O-sulfo-α-L-idopyranosyluronic acid-(1→4)-2-deoxy-2-sulfamido-6-O-sulfo-β-D-glucopyranoside [Example 1.1] | 385 IU/mg |
| NCCCCCO[C@H]1O[C@H](COS(=O)(=O)O)[C@@H](O[C@@H]2O[C@@H](C(=O)O)[C@@H](O[C@H]3O[C@H](COS(=O)(=O)O)[C@@H](O[C@@H]4O[C@H](C(=O)O)[C@@H](O[C@H]5O[C@H](COS(=O)(=O)O)[C@@H](O)[C@H](O)[C@H]5NS(=O)(=O)O)[C@H](O)[C@H]4O)[C@H](OS(=O)(=O)O)[C@H]3NS(=O)(=O)O)[C@H](O)[C@H]2OS(=O)(=O)O)[C@H](O)[C@H]1NS(=O)(=O)O [Example 1.2, 5-Aminopentyl 2-deoxy-2-sulfamido-6-O-sulfo-α-D-glucopyranosyl-(1→4)-β-D-glucopyranosyluronic acid-(1→4)-2-deoxy-2-sulfamido-3,6-di-O-sulfo-α-D-glucopyranosyl-(1→4)-2-O-sulfo-α-L-idopyranosyluronic acid-(1→4)-2-deoxy-2-sulfamido-6-O-sulfo-α-D-glucopyranoside] | 330 IU/mg |
